Data on two compounds can be found in PMC3541007 (ChemMedChem, 2009).

Where “and” joins values, the source holds several entries; their conditions need not be identical. Identical values can stand only once. Like-named read-outs stand apart in the source and are kept apart here.

The test system of test [1] is M. tuberculosis clinical isolate 12081. It counts as cell-based. Conditions: for MIC clinical isolate 12081: multi-drug resistant isolate, four weeks.
In test [2] the test system is M. tuberculosis H37Rv ΔkatG. It counts as cell-based, Mycobacterium tuberculosis.
Test [3] relates to M. tuberculosis H37Rv inhA (S94A). The test is classed as cell-based, Mycobacterium tuberculosis.
Test [4] has as its system M. tuberculosis clinical isolate 5071. It counts as cell-based. Conditions: multi-drug resistant isolate, four weeks.

For the compound `NNC(=O)c1ccncc1` [INH, isoniazid], in test [1] (MIC ratio vs wild-type strain), the “fold resistance of strain 12081” value came to 17 fold. In addition, in test [2], the “times less active against the ΔkatG mutant” value is reported as “more than 3000 times”. Also, in test [3], the “MIC H37Rv inhA (S94A)” value was 0.50 (3.6) µg/ml and 0.50 (3.6) µM; the “fold loss in potency versus InhA(S94A) strain compared to wild-type” value is 8 fold.
5-n-butyltriclosan [Compound 10]: the “MIC clinical isolate 12081” value in test [1] came out at 37 µg/mL; in test [1] (value in parentheses), 120 µM. Also, the “MIC clinical isolate 5071” value in test [4] stood at 4.7 µg/mL; in test [4] (value in parentheses), 15 µM. Also, the “MIC H37Rv inhA (S94A)” value in test [3] is 37 (120) µg/ml and 37 (120) µM.
